Reference: patent EP0474374A1, “Method for treatment of bone wasting diseases using a progestin” (ORTHO PHARMACEUTICAL CORPORATION, priority 1990, dated 1992)
Entries after “also recorded” stand apart in the source; their conditions may differ.

Experiments:
[1] = system: MC3T3-El osteoblast-line cells; experiment: Osteoblast cell proliferation (3H-thymidine incorporation into DNA); assay type: cell-based, mouse; settings: for osteoblast proliferation and differentiation: summary statement in words, bone forming cells, cell line not named; for OSTEOBLAST STIMULATION: ability to stimulate 3H-thymidine incorporation in MC3T3-El osteoblast-line cells, stimulation over control
Procedure: Only cells undergoing mitosis will synthesize new DNA and thus only these cells will incorporate the radiolabelled DNA specific nucleotide, thymidine. […] The ability of agents to increase osteoblast proliferation and differentiation can be predicted by their action on cultured osteoblast-line cells in vitro. In this test mouse (MC3T3-El), and human (TE-85) osteoblast-line cells were cultured in vitro and the effect of various progestins was tested on osteoblast cell proliferation. Osteoblast cell proliferation was determined by measuring the rate of DNA synthesis, which was quantified by measuring the rate of ³H-thymidine incorporation into DNA.
Following their placement into 96 well culture plates all the osteoblast-line cells, either the MC3T3-El or the TE-85 cell lines, were allowed an additional 24 hours preincubation period in media containing only 0.1% fetal bovine sera. The next day the test compounds were added and screened at concentrations ranging from 10⁻¹⁴ to 10⁻⁶ M depending on the particular study. Twenty hours later a 20 ul aliquot of media containing 0.4 uCi of ³H-thymidine was added to each culture well. The cells were then incubated for an additional 4 hours. The incubation was terminated by aspirating the media and washing with HBSS (Hank's Balanced Salt Solution). The cells were then treated with 100 ul of Trypsin-EDTA (Ethylene Diamine Tetra Acetic Acid) (0.5% trypsin and 5.3 mM EDTA) for 30 minutes at room temperature. The cells were then aspirated onto a glass fiber filter and washed with water. The radioactivity on the filters was quantified by liquid scintillation spectroscopy. The rate of ³H-thymidine incorporation into DNA is then utilized as an index of cell proliferation.
Mouse (MC3T3-El) osteoblast-line cells were cultured in vitro and the effect of various progestins on the ability of the cells to incorporate 3H-thymidine was determined. Osteoblast cell proliferation is determined by measuring the rate of DNA synthesis which was quantified by measuring the rate of ³H-thymidine incorporation into DNA. MC-3T3-El osteoblast-line cells were harvested from large culture flasks where they were allowed to grow to near confluency using Trypsin.

[2] = system: T47D breast carcinoma-line cells; experiment: Breast carcinoma cell proliferation (3H-thymidine incorporation into DNA); assay type: cell-based, human; settings: 0.00001 to 100 nM, result in words
Procedure: T47D breast (Human) carcinoma-line cells (American Type Tissue Culture Collection #HTB 133, Rockville, MD) were harvested using Trypsin from large (175 cm²) culture flasks where they were allowed to grow to near confluency. The cells were plated into 96 well culture plates, 1600 cells in 100 ul per well in DMEM with 25 mM Hepes buffer, L-glutamine (584 mg/l); D-glucose (4.5 gm/l) supplemented with 10% fetal bovine sera; penicillin (100 units/ml) and streptomycin (100 mcg/ml); sodium pyruvate (10 uM final concentration). The cells were allowed to plate overnight in DMEM containing 10% fetal bovine sera at 37°C in an atmosphere of 5% CO₂/95% air. Following their placement into 96 well culture plates, the cells were incubated for an additional 24 hour preincubation period in media containing only 0.1% fetal bovine sera. The next day the test compounds were added and screened at concentrations ranging from 10⁻¹⁴ to 10⁻⁶ M depending on the particular study. Twenty hours later a 20 ul aliquot of media containing 0.4 uCi of ³H-thymidine was added to each culture well. The cells were then incubated for an additional 4 hours. […] The radioactivity on the filters was quantified by liquid scintillation spectroscopy. […]
MC3T3-El cells were cultured as described in Example #1. […] The radioactivity on the filters was quantified by liquid scintillation spectroscopy. […]

[3] = system: TE-85 human osteoblast-line cells; experiment: Osteoblast cell proliferation (3H-thymidine incorporation into DNA); assay type: cell-based; settings: TE-85 cells, 0.0001 to 100 nM; result in words
Description: The action of select progestins to stimulate osteoblast proliferation can be measured in culture by estimating the rate of DNA synthesis by the rate of 3H-thymidine incorporation into DNA. Only cells undergoing mitosis will synthesize new DNA and thus only these cells will incorporate the radiolabelled DNA specific nucleotide, thymidine. The stimulation of the proliferation and differentiation of bone-forming cells, osteoblasts, is a prerequisite for an increase in bone formation and bone mass. The ability of agents to increase osteoblast proliferation and differentiation can be predicted by their action on cultured osteoblast-line cells in vitro. […] Osteoblast cell proliferation was determined by measuring the rate of DNA synthesis, which was quantified by measuring the rate of ³H-thymidine incorporation into DNA. […]
MC-3T3-El (cloned by Sudo and Coworkers, Koriyama Japan) and TE85 (American Type Tissue Culture Collection #CRL 1543, Rockville, MD) osteoblast-line cells were harvested from large culture flasks (175 cm²) where they were allowed to grow to near confluency using Trypsin. […] The radioactivity on the filters was quantified by liquid scintillation spectroscopy. […]
Osteoblast growth was determined by me: ring the rate of 3H-thymidine incorporation into DNA as in Example #1. […]

[4] = system: MC3T3-El osteoblast-line cells; experiment: Osteoblast cell number by Coulter counting; assay type: cell-based, mouse; settings: 0.01 to 100 nM, 5 days, no fetal bovine sera; result in words
Procedure: In this study MC3T3-El osteoblast-line cells were cultured into 6 well plates at a density of 50,000 cells/well in 10% fetal bovine sera. The following day media was changed to that containing no fetal bovine sera . The next day some of the cells were harvested by trypsin and counted using a Coulter cell counter. This count was considered as Day 0. […] After 5 days all of the cells were harvested and counted using a Coulter cell counter.
Figure 2. […] Each striped bar represents the mean and the vertical line l S.E.M. of 6 determinations.

[5] = system: TE-85 human osteoblast-line cells; experiment: Alkaline phosphatase secretion into the media (osteoblast differentiation); assay type: cell-based
Procedure: Osteoblast growth was determined by me: ring the rate of 3H-thymidine incorporation into DNA as in Example #1. Osteoblast differention was estimated by measuring the secretion of skeletal alkaline phosphatase into the media. Skeletal alkaline phosphatase is considered a reliable marker of osteoblast differention and activity. TE-85 human osteoblast-line cells were cultured as described previously in Example #1. […] 3H-Thymidine incorporation into the osteoblast cell DNA and alkaline phosphatase secreted into the media was measured simultaneously (Figure 3 and 4).

[6] = target: T1, rat prostate androgen cytosolic receptors (Rattus norvegicus, UniProt P15207); experiment: Androgen receptor binding (competitive 3H-DHT displacement); settings: 1 nM 3H-DHT, 24 hours at 4°C; mean + 1 S.E. of 4 determinations in duplicate
T1 construct: the supernatant was used as the cytosolic androgen receptor preparation; from tissue; host or cells: ventral prostate glands of castrated male rats (250-300 g); 105,000 g cytosol supernatant
T1 sequence (P15207 1-902): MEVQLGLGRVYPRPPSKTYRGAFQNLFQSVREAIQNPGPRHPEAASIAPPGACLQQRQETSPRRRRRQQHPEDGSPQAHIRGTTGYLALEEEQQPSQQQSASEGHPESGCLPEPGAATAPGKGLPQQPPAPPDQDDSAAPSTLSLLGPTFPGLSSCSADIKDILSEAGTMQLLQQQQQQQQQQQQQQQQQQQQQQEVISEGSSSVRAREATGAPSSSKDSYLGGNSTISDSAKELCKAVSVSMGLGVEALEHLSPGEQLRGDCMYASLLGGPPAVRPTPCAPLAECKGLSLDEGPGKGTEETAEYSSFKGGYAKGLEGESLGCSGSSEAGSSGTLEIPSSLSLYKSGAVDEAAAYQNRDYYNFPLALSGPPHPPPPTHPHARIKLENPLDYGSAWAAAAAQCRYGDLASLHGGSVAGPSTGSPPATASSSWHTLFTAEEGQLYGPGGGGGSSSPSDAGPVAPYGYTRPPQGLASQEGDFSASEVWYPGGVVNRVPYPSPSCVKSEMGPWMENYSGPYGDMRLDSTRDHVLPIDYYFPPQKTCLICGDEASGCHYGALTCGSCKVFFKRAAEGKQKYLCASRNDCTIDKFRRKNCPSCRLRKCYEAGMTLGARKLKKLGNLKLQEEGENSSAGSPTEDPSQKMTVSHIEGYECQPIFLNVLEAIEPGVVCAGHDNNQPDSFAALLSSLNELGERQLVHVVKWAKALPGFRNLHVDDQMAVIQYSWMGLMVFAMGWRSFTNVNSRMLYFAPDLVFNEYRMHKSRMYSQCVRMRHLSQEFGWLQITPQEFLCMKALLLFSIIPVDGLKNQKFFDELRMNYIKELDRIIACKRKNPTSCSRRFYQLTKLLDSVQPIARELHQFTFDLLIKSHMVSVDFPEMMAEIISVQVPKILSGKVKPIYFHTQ
Procedure: The relative binding affinity of other steroids, such as progestins, for androgen receptors can be determined by evaluating their ability to displace ³H-DHT from these rat ventral prostate receptors in vitro. Cytosolic androgen receptors were prepared from ventral prostate glands isolated from castrated male rats (250-300 g). Ventral prostate glands were homogenized and centrifuged at 105,000 g for 60 min at 4°C and the supernatant was used as the cytosolic androgen receptor preparation. […] The relative degree of receptor binding of the test progestin was expressed as percent inhibition of total ³H-DHT binding.
The relative binding affinity of other steroids, such as progestins, for androgen receptors is determined by evaluating their ability to displace ³H-DHT from these rat ventral prostate receptors in vitro. Cytosolic androgen receptors were prepared from ventral prostate glands isolated from castrate male rats (250-300 g). Ventral prostate glands were homogenized and centrifuged at 105,000 g for 60 min at 4°C and the supernatant used as the cytosolic androgen receptor preparation. […] The relative degree of receptor binding of the test progestin was expressed as percent inhibition of total ³H-DHT binding.
Relative androgen receptor binding activity was analyzed in competitive binding assays utilizing 3H-DHT binding for rat prostate androgen cytosolic receptors.

SMILES	osteoblast proliferation and differentiation [1]	OSTEOBLAST STIMULATION [1]	further results
CC(=O)O[C@]1(C(C)=O)CC[C@H]2[C@@H]3C=C(Cl)C4=CC(=O)[C@@H]5C[C@@H]5[C@]4(C)[C@H]3CC[C@@]21C [cyproterone acetate]	do not stimulate		
C#C[C@]1(OC(C)=O)CC[C@H]2[C@@H]3CCC4=CC(=O)CC[C@@H]4[C@H]3CC[C@@]21C [norethindrone acetate]	significantly and reproducibly stimulate		
C#C[C@]1(O)CC[C@H]2[C@@H]3CCC4=CC(=O)CC[C@@H]4[C@H]3C(=C)C[C@@]21CC [3-KETO-DESOGESTREL]		NOT ACTIVE	
C[C@]12CC[C@H]3[C@@H](CCC4=CC(=O)CC[C@@H]43)[C@@H]1CC[C@@H]2O [19-nortestosterone]	do not stimulate		
C#C[C@]1(O)CC[C@H]2[C@@H]3CCC4=CC(=O)CC[C@@H]4[C@H]3CC[C@@]21C [NORETHINDRONE]	significantly and reproducibly stimulate	ACTIVE	osteoblast proliferation ([1]; MC3T3-El cells, result in words): does possess osteoblast proliferative action; also recorded: dose-related increase; proliferation of breast cell line [2]: dose-related increase; 3H-thymidine incorporation [3]: increased; osteoblast number [4]: induced an increase in osteoblast number; secretion of alkaline phosphatase ([5]; TE-85 cells, 0.0001 to 100 nM, result in words): increased; cellular alkaline phosphatase activity in osteoblast-line cells ([5]; summary statement in words, cell line not named): stimulate
C#C[C@]1(O)CC[C@H]2[C@@H]3CCC4=C(CCC(=O)C4)[C@H]3CC[C@@]21C [norethynodrel]	significantly and reproducibly stimulate		
C#C[C@]1(O)C=C[C@H]2[C@@H]3CCC4=CC(=O)CC[C@@H]4[C@H]3CC[C@@]21CC [GESTODENE]	do not stimulate	NOT ACTIVE	IC50 [6]: 13 nM
C[C@]12CCC(=O)C[C@@H]1CC[C@@H]1[C@@H]2CC[C@]2(C)[C@@H](O)CC[C@@H]12 [DIHYDROTESTOSTERONE, 5-alpha-dihydrotestosterone]		NOT ACTIVE	
CC(=O)O[C@]1(C(C)=O)CC[C@H]2[C@@H]3C=C(Cl)C4=CC(=O)CC[C@]4(C)[C@H]3CC[C@@]21C [chlormadionone acetate]	significantly and reproducibly stimulate		
CC(=O)O[C@]1(C(C)=O)CC[C@H]2[C@@H]3C=C(C)C4=CC(=O)CC[C@]4(C)[C@H]3CC[C@@]21C [megestrol acetate]	significantly and reproducibly stimulate		
CC(=O)[C@H]1CC[C@H]2[C@@H]3CCC4=CC(=O)CC[C@]4(C)[C@H]3CC[C@]12C [PROGESTERONE]	significantly and reproducibly stimulate	ACTIVE	
C#C[C@]1(OC(C)=O)CC[C@H]2[C@@H]3CCC4=CC(=NO)CC[C@@H]4[C@H]3CC[C@@]21CC (mixture of isomers) [NORGESTIMATE]	do not stimulate	NOT ACTIVE	
C#C[C@]1(O)CC[C@H]2[C@@H]3CCC4=CCCC[C@@H]4[C@H]3C(=C)C[C@@]21CC [desogestrel]	do not stimulate		
CC(=O)O[C@]1(C(C)=O)CC[C@H]2[C@@H]3C[C@H](C)C4=CC(=O)CC[C@]4(C)[C@H]3CC[C@@]21C [medroxyprogesterone acetate]	significantly and reproducibly stimulate		
C#C[C@]1(O)CC[C@H]2[C@@H]3CCC4=CC(=O)CC[C@@H]4[C@H]3CC[C@@]21CC [LEVONORGESTREL]		NOT ACTIVE	
